In patent US20210128537A1, “T-TYPE CALCIUM CHANNEL MODULATORS AND METHODS OF USE THEREOF” (Praxis Precision Medicines, inc., priority 2016, published 2021):
Like-named read-outs stand apart in the source and are kept apart here.

Columns and labels:
fully kindled rats = test: Amygdala kindling model, anti-seizure testing in fully kindled rats; format: in vivo, rat; conditions: for primary after discharge: all four doses of Z944, ETX 100 mg/kg, compared to vehicle (p>0.5)
Method: Animals were implanted with EEG recording electrodes and with a stimulating bipolar electrode in the left basolateral amygdaloid nucleus using the coordinates AP±3.0 mm, ML±5.9 mm, DV±6.0 mm. The after discharge threshold (ADT) for each animal was determined by administering a stimulation (frequency=60.1 Hz; duration=1000 μs) at one minute intervals until a seizure was clicited. The amplitude of the stimulation was started at 0.02 mA with increments of 0.02 mA; the stimulations were stopped when the animal experienced a seizure of ≥6 second duration, or if the amplitude of 0.40 mA was reached without the occurrence of a seizure. […] Kindling was performed twice a day for five days per week with an endpoint of 30 stimulations or until the animal presented five class V seizures (referred to as fully kindled). The seizure severity was classified from 0 (less severe) to V (most severe) according to the Racine Scale (Racine, 1972b). Sham kindled animals were handled the same way as the kindled animals, although no electrical stimulation was applied. An animal is classified as fully kindled once it has experienced 5 class V seizures.
Drug testing was performed twice a week until all animals had received each of the seven treatments, Z944 (5 mg/kg, 10 mg/kg, 30 mg/kg and 100 mg/kg), vehicle (10% DMSO/90% Na^+-CMC or CBZ vehicle 20% DMSO/40% propylene glycol/40% saline), ETX (100 mg/kg) or CBZ (30 mg/kg). Prior to drug testing each day, animals were subjected to a maximum of three pre-drug stimulations 30 minutes apart. The animals qualified for testing on that particular day if a class IV or V seizure was elicited in at least 2 out of 3 pre-drug stimulations. Stimulations consisted of a 1 second train of 1 ms biphasic square wave pulses at a frequency of 60 Hz with current amplitude based on each animal ADT that elicited a seizure. Thirty minutes after the last pre-drug stimulation, the animals received an IP injection of one of the seven treatments in a randomized manner at a dose volume of 5 ml/kg. Six post-drug stimulations were administered to each animal, the first stimulation was given 15 minutes post drug injection (to allow brain penetration of the drugs) and the following five stimulations were delivered in 30 minutes intervals thereafter with the seizure class elicited being recorded after each post-drug stimulation. The duration of the primary and total seizures, if any, were recorded. An investigator blinded to the drug treatment analyzed all EEG recordings. Primary after discharge is the duration of the seizure elicited from the kindling stimulation. Total after discharge is the total seizure duration including any secondary seizures that occur after the primary after discharge. Primary after discharge duration and total seizure duration were recorded and averaged for the 6 post-drug stimulations.
Animal weight and behaviour when handled were monitored for the duration of the experimental period. Additionally, animals were assessed by observation for any adverse effects of drugs on grooming, fur appearance, gait, and excretion.

hCaV3.2 = hCaV3.2 (Homo sapiens, UniProt O95180); test: Inactivated channel state FLIPR assay, concentration-dependent inhibition of hCaV3.2; format: cell-based; conditions: for IC50: hCaV3.2, inactivated channel state FLIPR, n=4 wells per concentration; for slope of the concentration-inhibition curve: logistic function fit
[1] = tested on: absence seizures in patients; conditions: cited from earlier work
post-SE rats [2] = test: Kainic acid induced post-status epilepticus model, video-EEG seizure analysis; format: in vivo, rat; conditions: osmotic pump 4 weeks; Z944 60 mg/kg/day, levetiracetam 200 mg/kg/day
Method: Pumps were filled with either Z944 to deliver a daily dose of 60 mg/kg, levetiracetam to deliver a daily dose of 200 mg/kg or vehicle. For the drug tolerability study, osmotic pumps continuously either Z944, levetiracetam or vehicle for 7 days and for the post-SE study osmotic pumps delivered continuously the different treatments for 28 days.
FIG. 11 summarizes the different methods used on this experimental paradigm.
Animals were implanted with subdural EEG recording electrodes and one week after surgery, the animals were connected using cables that allowed them free movement around their cage. A repeated low dose KA administration protocol was used. Rats were injected i.p. with an initial dose of KA 7.5 mg/kg plus 3 ml of normal saline to prevent dehydration. Animals were monitored for 45 minutes for EEG and behavioural seizures based on the Racine scale. […] This was repeated up to 2 times every 45 minutes. An animal was eliminated from the experiment if it didn't show a stable self-sustained SE after a maximum KA total dose of 15 mg/kg. Two sham groups were treated identically but received saline injections instead of KA. After four hours of sustained electroencephalographic and behavioural seizures the animals were randomly allocated to one of the five treatment groups: sham+vehicle (n=6), sham+Z944 (n=6), post-SE+vehicle (n=8), post-SE+Z944 (n=8), post-SE+levetiracetam (n=9).
Animals were anesthetized and implanted with subcutaneous osmotic pumps containing either vehicle Z944 (60 mg/kg/day), or levetiracetam (200 mg/kg/day) that delivered the treatment continuously for 4 weeks. Immediately after the pump implantation, SE was stopped with diazepam (5 mg/kg/dose).
vEEG recordings commenced at least 4 h prior the induction of SE to provide baseline recordings. The video-EEG recordings continued for the whole duration of the treatment period, i.e. four weeks after the termination of the SE. […] EEG analysis was performed in a blinded manner and confirmed by two different observers. All EEG recordings were visually and manually annotated using Profusion 3 software. A seizure was defined as an episode of rhythmic spiking activity that was three times the baseline amplitude and a frequency >5 Hz that lasted at least 10 s. The end of a seizure was determined as the last spike. The average number of seizures per day, average seizure duration and seizure class (severity) were analysed.

post-SE rats [3] = test: Morris water maze in post-SE rats; format: in vivo, rat; conditions: Z944 60 mg/kg/day, levetiracetam 200 mg/kg/day for 4 weeks
Method: All behavioural tests were performed in a light-controlled (˜110 lux), closed, quiet and clean room in the. Behavioural testing was performed in a blinded manner to the treatment groups. All of the behavioural tests were video recorded for future analysis. OF, EPM and MWM sessions were filmed using a digital camera mounted above the centre of the arena, which was connected to a computer for the recording and objective analysis of digitized behavioural tests (EthoVision 3.0.15, Noldus). The first behavioural test was performed one week after the last EEG recording. The different behavioural tests/session were performed 24 hours apart from each other. All tests were scored by an experienced observer who was blind to the experimental conditions of the animals.
The MWM is a circular black PVC plastic pool of 160 cm diameter which is filled to a depth of either 2.5 cm above a 10 cm diameter hidden platform water at 25±1° C. The platform is located in the centre of the South-West quadrant during the first 3 sessions and changed to North-East quadrant for the remaining sessions. Visual cues are placed in the main 4 cardinal points, consisting of large black and white symbols that serve as orientation landmarks for the rats. […] The latency to find the escape platform, speed and strategic path used by the animal to locate the platform are recorded. […]

Chain of hCaV3.2 (O95180 whole entry): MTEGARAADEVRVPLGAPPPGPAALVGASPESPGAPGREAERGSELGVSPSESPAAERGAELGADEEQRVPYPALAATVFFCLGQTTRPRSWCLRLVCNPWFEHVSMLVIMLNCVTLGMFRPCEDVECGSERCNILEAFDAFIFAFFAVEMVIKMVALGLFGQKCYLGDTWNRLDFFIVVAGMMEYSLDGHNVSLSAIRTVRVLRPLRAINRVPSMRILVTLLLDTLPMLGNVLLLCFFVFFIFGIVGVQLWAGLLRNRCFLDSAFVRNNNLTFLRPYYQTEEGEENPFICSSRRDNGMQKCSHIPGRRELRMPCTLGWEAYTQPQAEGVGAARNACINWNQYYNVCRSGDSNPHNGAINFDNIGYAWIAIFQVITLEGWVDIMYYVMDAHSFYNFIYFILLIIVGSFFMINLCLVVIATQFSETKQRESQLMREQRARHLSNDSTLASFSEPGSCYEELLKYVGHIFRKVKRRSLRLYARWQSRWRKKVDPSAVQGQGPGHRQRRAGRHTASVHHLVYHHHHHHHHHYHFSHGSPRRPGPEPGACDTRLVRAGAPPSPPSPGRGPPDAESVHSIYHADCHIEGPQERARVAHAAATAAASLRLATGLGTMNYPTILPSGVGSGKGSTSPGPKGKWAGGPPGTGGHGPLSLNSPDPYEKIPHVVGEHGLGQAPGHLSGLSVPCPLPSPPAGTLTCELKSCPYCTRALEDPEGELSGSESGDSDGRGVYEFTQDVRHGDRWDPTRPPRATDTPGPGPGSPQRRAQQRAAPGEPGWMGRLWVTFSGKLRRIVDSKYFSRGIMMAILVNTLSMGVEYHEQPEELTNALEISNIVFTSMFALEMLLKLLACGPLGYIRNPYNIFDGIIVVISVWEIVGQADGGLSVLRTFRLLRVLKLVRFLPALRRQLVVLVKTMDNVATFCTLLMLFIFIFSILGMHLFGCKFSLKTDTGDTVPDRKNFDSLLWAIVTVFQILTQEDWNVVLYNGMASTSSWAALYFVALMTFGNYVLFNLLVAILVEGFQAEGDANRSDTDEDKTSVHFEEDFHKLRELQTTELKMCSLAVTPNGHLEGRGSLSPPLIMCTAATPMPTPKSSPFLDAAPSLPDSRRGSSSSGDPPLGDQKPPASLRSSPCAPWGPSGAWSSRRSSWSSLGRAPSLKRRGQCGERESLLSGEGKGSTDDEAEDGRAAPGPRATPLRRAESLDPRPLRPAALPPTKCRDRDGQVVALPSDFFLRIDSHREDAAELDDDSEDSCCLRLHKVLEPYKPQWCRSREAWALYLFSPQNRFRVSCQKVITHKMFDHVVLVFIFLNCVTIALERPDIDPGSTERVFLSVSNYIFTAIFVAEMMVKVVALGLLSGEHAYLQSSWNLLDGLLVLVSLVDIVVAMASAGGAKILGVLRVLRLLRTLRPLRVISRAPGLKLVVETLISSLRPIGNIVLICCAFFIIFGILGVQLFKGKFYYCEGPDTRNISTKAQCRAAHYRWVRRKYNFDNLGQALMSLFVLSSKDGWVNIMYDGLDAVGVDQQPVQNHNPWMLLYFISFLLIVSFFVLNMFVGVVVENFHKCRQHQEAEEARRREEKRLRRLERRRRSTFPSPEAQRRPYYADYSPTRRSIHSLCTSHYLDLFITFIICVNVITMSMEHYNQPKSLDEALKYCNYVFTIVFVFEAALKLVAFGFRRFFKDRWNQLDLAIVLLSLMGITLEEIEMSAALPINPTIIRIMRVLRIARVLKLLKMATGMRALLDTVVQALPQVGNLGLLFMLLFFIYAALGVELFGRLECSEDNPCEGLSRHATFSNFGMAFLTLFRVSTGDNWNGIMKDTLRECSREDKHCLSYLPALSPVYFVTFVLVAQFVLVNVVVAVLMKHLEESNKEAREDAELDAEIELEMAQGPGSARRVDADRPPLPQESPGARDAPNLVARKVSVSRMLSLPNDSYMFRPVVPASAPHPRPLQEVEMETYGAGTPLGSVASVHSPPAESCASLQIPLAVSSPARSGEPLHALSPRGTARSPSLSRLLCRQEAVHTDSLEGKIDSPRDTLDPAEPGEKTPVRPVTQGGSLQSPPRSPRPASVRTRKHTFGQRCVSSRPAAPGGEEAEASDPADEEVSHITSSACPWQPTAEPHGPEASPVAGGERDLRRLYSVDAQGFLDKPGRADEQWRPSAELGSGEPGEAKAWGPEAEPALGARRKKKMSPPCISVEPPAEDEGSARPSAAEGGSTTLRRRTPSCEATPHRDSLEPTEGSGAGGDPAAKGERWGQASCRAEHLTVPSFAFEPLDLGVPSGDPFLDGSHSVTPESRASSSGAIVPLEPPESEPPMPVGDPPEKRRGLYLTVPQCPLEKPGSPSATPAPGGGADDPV

Structure (SMILES) | primary after discharge (fully kindled rats; IP, CBZ 30 mg/kg) | IC50 (hCaV3.2) [mM] | slope of the concentration-inhibition curve (hCaV3.2) | also measured
NC(=O)N1c2ccccc2C=Cc2ccccc21 [Carbamazepine, carbamazepine, reference compound] | did not affect the primary after discharge | – | – | seizure class elicited (Racine scale) (fully kindled rats; IP, Z944 5, 10, 30, 100 mg/kg, CBZ 30 mg/kg, compared to vehicle): significantly reduced the class of seizure elicited; adverse effects (sedation scale 0-4) compared to vehicle (fully kindled rats; Z944 100 mg/kg, CBZ 30 mg/kg IP, p<0.01): significantly higher adverse effects
CCC1(C)CC(=O)NC1=O (stereo not drawn) [Ethosuximide, ethosuximide, reference compound] | did not affect the primary after discharge | 70 | – | –
CCCC(CCC)C(=O)[O-].[Na+] [Valproate, sodium valproate] | – | – | 4.4 | patients whose seizures were completely controlled ([1]; at 12 months): 44%; patients whose seizures were completely controlled ([1]; at 16 weeks, video-EEG recordings): 58%
CC(C)(C)NC(=O)CN1CCC(CNC(=O)c2cccc(Cl)c2)CC1 [Z941] | – | 0.00012 | 0.8 | –
CC[C@@H](C(N)=O)N1CCCC1=O [levetiracetam, reference compound] | – | – | – | neurological adverse effects after prolonged treatment (post-SE rats [2]): only transient and minor neurological adverse effects; time to find the hidden platform (cognition) (post-SE rats [3]): took significantly longer to find the hidden platform
